The source of these data is patent US20250230146A1, “CARBOCYCLIC NUCLEOSIDE, OLIGONUCLEOTIDE AND PREPARATION METHODS THEREFOR AND MEDICAL USES THEREOF” (REDFIELD PHARMACEUTICAL INC., priority 2023, published 2025).

In series [1] the test system is snake venom phosphodiesterase (Crotalus admanteus venom phosphodiesterase (CAVP)).
Series [2] relates to sense strand (5′-AAAAAAAAAA-3′; SEQ ID NO: 4). Nature of the series: Melting temperature (Tm) test of antisense strand annealed with sense strand. The settings on record: duplex with sense strand 5′-AAAAAAAAAA-3′; UV absorption at 260 nm.
Protocol: A mixture of 1 mL of the sense strand (0.5 OD/mL) and 1 mL of the antisense strand (0.5 OD/mL) was mixed and stirred evenly, heated at 90° C. for 10 min, and then cooled to room temperature. A Tm value of the sample was measured using an ultraviolet spectrophotometer (Agilent, Cary 3500 UV-Vis), the sample was placed in a cuvette with a cap and a temperature probe, a temperature was set to be raised from 20-25° C. to 70-80° C. at a rate of 0.5° C. or 1.0° C. per minute, and ultraviolet absorption at 260 nm was measured at an interval of 0.5° C.

What is called Tm is the temperature at the midpoint of the melting transition. Turning to “5′-TTTTTTTTTT-3′ [Control antisense strand]”, in series [1], the “degradation by nuclease (in words)” value is “almost completely degraded”. Also, the Tm in series [2] was 43 °C.
